Assay results taken from US8258116B2, “Combination therapy for the treatment of HCV infection” (Vertex Pharmaceuticals Incorporated, priority 2007, dated 2012).

How the values were obtained:
[1] = tested on: HCV NS3 protease variant replicon A156T; assay: 2-Day HCV Replicon IC50 Assay, A156T; assay type: cell-based
Experimental: Huh-7 cells were propagated in Dulbecco's modified Eagle's medium (DMEM, JRH Biosciences, Lenexa, Kans.) supplemented with 10% heat-inactivated FBS (fetal bovine serum), 2 mM L-glutamine, and nonessential amino acids (JRH). The cells were transfected with an in vitro transcribed HCV replicon RNA identical to replicon 1377neo/NS3-3′/wt as described by Lohmann et al. (1999). Stable cell clones were selected and maintained in the presence of 250 μg/mL G418 (Invitrogen, Carlsbad, Calif.). […] The HCV NS3 protease variant replicons were constructed in the background of the mADE wild-type replicon as described previously [Chao Lin et al., “In Vitro Resistance Studies of Hepatitis C Virus Serine Protease Inhibitors, VX-950 and BILN 2061: Structural Analysis Indicates Different Resistance Mechanisms,” Journal of Biological Chemistry, 279(17); pp. 17508-17514 (2004)]. The replicon cells were propagated in DMEM supplemented with 10% FBS, 2 mM L-glutamine, nonessential amino acids, and 250 μg/mL G418. The cells were split twice per week in fresh media upon reaching confluence. There are approximately 200-300 copies of HCV RNA per 24-2 replicon cell.
HCV replicon RNA from cells was measured using the Quantigene Discover XL kit (Panomics Inc., Fremont Calif.) as per the manufacturer's instructions. Briefly, compound-treated replicon cells were lysed and immobilized on to capture plates using HCV specific oligonucleotides (designed based on the 5′ UTR region of HCV 1b genome sequence AJ238799 in the GenBank database) over night and the relative amounts of captured RNA was measured using oligonucleotide probe sets as per the manufacturer's instructions.
On the day prior to the assay, 10,000 replicon cells were plated per well of a 96-well plate and allowed to attach and grow overnight in DMEM (Invitrogen, Carlsbad, Calif.) supplemented with 10% heat-inactivated FBS (JRH Biosciences, Lenexa, Kans.), 2 mM L-glutamine (Invitrogen), nonessential amino acids (Invitrogen) and 250 μg/ml G418 (Invitrogen). Next day, the medium was removed and antiviral agents that were serially diluted in DMEM containing 2% FBS and 0.5% DMSO (Sigma Chemical Co., St. Louis, Mo.) without G418, was added. The replicon cells were incubated with the antiviral agents for 48 h. HCV replicon RNA from cells was measured using the Quantigene Discover XL kit (Panomics Inc., Fremont Calif.) as per the manufacturer's instructions. Briefly, compound-treated replicon cells were lysed and immobilized onto capture plates using HCV specific oligonucleotides overnight and the relative amounts of captured RNA was measured using oligonucleotide probe sets as per the manufacturer's instructions. Unless indicated otherwise, each data point represents the average of three replicates. The IC50 is the concentration of the compound at which the HCV replicon RNA level in cells is reduced by 50% as compared to the untreated replicon cell controls. To monitor the effect of compounds on cell proliferation or cell viability, replicon cells were treated with serially diluted compounds for 48 h, after which cell viability was determined using a CellTiter Glo assay (Promega, Madison, Wis.). Each CC50 is derived from at least two replicates and is the concentration of the compound at which the number of viable cells is reduced by 50% as compared to untreated cell controls. The IC50 and CC50 was determined using 4-parameter curve fitting in the SoftMax Pro program (Molecular Devices, Sunnyvale, Calif.).
The sensitivity of NS3 protease variants to ribavirin and interferon was assessed in a 2-Day HCV Replicon IC50 Assay.

[2] = tested on: HCV genotype 1; assay: phase 1b trial (Study VX04-950-101); assay type: in vivo; settings: subjects infected with HCV genotype 1, phase 1b
Text: The degree to which a subject responds to treatment and the rate at which viral rebound is observed could in part be due to genotypic differences in sensitivity to the protease inhibitor. The rapid replication rate of HCV, along with the poor fidelity of its polymerase, gives rise to an accumulation of mutations throughout its genome [P. Simmonds, “Genetic diversity and evolution of hepatitis C virus—15 years on,” J. Gen. Virol., 85, pp. 3173-88 (2004)]. The degree to which sequence variability in the protease region affects the catalytic efficiency of the enzyme or the binding of an inhibitor is not known. Additionally, the generation of numerous viral genomes with remarkable sequence variation presents potential problems of emerging drug resistant virus in subjects treated with antiviral therapy. Indeed, drug resistance against antiviral drugs, such as HIV protease inhibitors, is well documented [Johnson et al., Top. HIV Med., 12, pp. 119-24 (2004)]. […] Agents Chemother., 48, pp. 2260-6 (2004); Trozzi et al., “In vitro selection and characterization of hepatitis C virus serine protease variants resistant to an active-site peptide inhibitor,” J. Virol. 77, pp. 3669-79 (2003)]. […]

With `CCC[C@H](NC(=O)[C@@H]1[C@H]2CCC[C@H]2CN1C(=O)[C@@H](NC(=O)[C@@H](NC(=O)c1cnccn1)C1CCCCC1)C(C)(C)C)C(=O)C(=O)NC1CC1` [VX-950] the “Fold Change” value ([1]; A156T, ratio of mutant IC50 to Wild type IC50 for the same inhibitor) was over 65.2, the IC50 ([1]; Hepatitis C virus, read-out: Avg. IC50 ± STDEV) was over 30 µM and the antiviral activity [2] was “substantial antiviral activity”.
